Results: PubChem BioAssay (NCI)
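A five-concentration, 48-hour dose response in 96-well plates underlies each endpoint, interpolated linearly between surrounding concentrations. TGI: concentration producing complete growth inhibition.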

Legend:
Experiment in all cases: inhibition of tumour cell growth, NCI panel, 48 h
EKVX NSCLC = system: EKVX NSCLC
SW-620 colon = system: SW-620 colon
SNB-78 CNS = system: SNB-78 CNS
SK-OV-3 ovarian = system: SK-OV-3 ovarian
786-0 renal = system: 786-0 renal
U251 CNS = system: U251 CNS
DMS 273 small cell lung = system: DMS 273 small cell lung
HL-60(TB) leukemia = system: HL-60(TB) leukemia
HT29 colon = system: HT29 colon
UACC-62 melanoma = system: UACC-62 melanoma
SK-MEL-2 melanoma = system: SK-MEL-2 melanoma
SNB-75 CNS = system: SNB-75 CNS
ACHN renal = system: ACHN renal
OVCAR-4 ovarian = system: OVCAR-4 ovarian
XF 498 CNS = system: XF 498 CNS
DLD-1 colon = system: DLD-1 colon
DMS 114 small cell lung = system: DMS 114 small cell lung
UACC-257 melanoma = system: UACC-257 melanoma
HOP-62 NSCLC = system: HOP-62 NSCLC
HOP-92 NSCLC = system: HOP-92 NSCLC
M19-MEL melanoma = system: M19-MEL melanoma
COLO 205 colon = system: COLO 205 colon
SF-295 CNS = system: SF-295 CNS
HCT-15 colon = system: HCT-15 colon
SK-MEL-5 melanoma = system: SK-MEL-5 melanoma
M14 melanoma = system: M14 melanoma
MOLT-4 leukemia = system: MOLT-4 leukemia
OVCAR-5 ovarian = system: OVCAR-5 ovarian
RPMI-8226 leukemia = system: RPMI-8226 leukemia
SNB-19 CNS = system: SNB-19 CNS
SF-539 CNS = system: SF-539 CNS
TK-10 renal = system: TK-10 renal
LXFL 529 NSCLC = system: LXFL 529 NSCLC
NCI-H23 lung = system: NCI-H23 lung
K-562 leukemia = system: K-562 leukemia
A498 renal = system: A498 renal
MALME-3M melanoma = system: MALME-3M melanoma
HCT-116 colon = system: HCT-116 colon
CCRF-CEM leukemia = system: CCRF-CEM leukemia
KM20L2 colon = system: KM20L2 colon
KM12 colon = system: KM12 colon
HOP-18 NSCLC = system: HOP-18 NSCLC
NCI-H460 lung = system: NCI-H460 lung
A549 NSCLC = system: A549 NSCLC
SK-MEL-28 melanoma = system: SK-MEL-28 melanoma
LOX IMVI melanoma = system: LOX IMVI melanoma
HCC-2998 colon = system: HCC-2998 colon
IGROV1 ovarian = system: IGROV1 ovarian
OVCAR-3 ovarian = system: OVCAR-3 ovarian
CAKI-1 renal = system: CAKI-1 renal
OVCAR-8 ovarian = system: OVCAR-8 ovarian
UO-31 renal = system: UO-31 renal
SR leukemia = system: SR leukemia
NCI-H226 lung = system: NCI-H226 lung
RXF 393 renal = system: RXF 393 renal
SN12C renal = system: SN12C renal
SF-268 CNS = system: SF-268 CNS
NCI-H522 lung = system: NCI-H522 lung

C=C(/C=C/C=C(\CO)CCC=C(C)C)[C@H]1CCC2([C@H](CCCO)/C(=C(/C)C=O)CC[C@]2(C)O)[C@H]1O (stereo partly drawn)
TGI (EKVX NSCLC): > 100 µM | TGI (SW-620 colon): > 100 µM | TGI (SNB-78 CNS): > 100 µM | TGI (SK-OV-3 ovarian): > 100 µM | TGI (786-0 renal): > 100 µM | TGI (U251 CNS): > 100 µM | TGI (DMS 273 small cell lung): > 100 µM | TGI (HL-60(TB) leukemia): > 100 µM | TGI (HT29 colon): > 100 µM | TGI (UACC-62 melanoma): > 100 µM | TGI (SK-MEL-2 melanoma): > 100 µM | TGI (SNB-75 CNS): > 100 µM | TGI (ACHN renal): > 100 µM | TGI (OVCAR-4 ovarian): > 100 µM | TGI (XF 498 CNS): > 100 µM | TGI (DLD-1 colon): > 100 µM | TGI (DMS 114 small cell lung): > 100 µM | TGI (UACC-257 melanoma): > 100 µM | TGI (HOP-62 NSCLC): > 100 µM | TGI (HOP-92 NSCLC): > 100 µM | TGI (M19-MEL melanoma): > 100 µM | TGI (COLO 205 colon): > 100 µM | TGI (SF-295 CNS): > 100 µM | TGI (HCT-15 colon): > 100 µM | TGI (SK-MEL-5 melanoma): > 100 µM | TGI (M14 melanoma): > 100 µM | TGI (MOLT-4 leukemia): > 100 µM | TGI (OVCAR-5 ovarian): > 100 µM | TGI (RPMI-8226 leukemia): > 100 µM | TGI (SNB-19 CNS): > 100 µM | TGI (SF-539 CNS): > 100 µM | TGI (TK-10 renal): > 100 µM | TGI (LXFL 529 NSCLC): > 100 µM | TGI (NCI-H23 lung): > 100 µM | TGI (K-562 leukemia): > 100 µM | TGI (A498 renal): > 100 µM | TGI (MALME-3M melanoma): > 100 µM | TGI (HCT-116 colon): > 100 µM | TGI (CCRF-CEM leukemia): > 100 µM | TGI (KM20L2 colon): > 100 µM | TGI (KM12 colon): > 100 µM | TGI (HOP-18 NSCLC): > 100 µM | TGI (NCI-H460 lung): > 100 µM | TGI (A549 NSCLC): > 100 µM | TGI (SK-MEL-28 melanoma): > 100 µM | TGI (LOX IMVI melanoma): > 100 µM | TGI (HCC-2998 colon): > 100 µM | TGI (IGROV1 ovarian): > 100 µM | TGI (OVCAR-3 ovarian): > 100 µM | TGI (CAKI-1 renal): > 100 µM | TGI (OVCAR-8 ovarian): > 100 µM

NC(=O)N1N=C2c3ccccc3OC[C@H]2[C@@H]1c1ccccc1
TGI (EKVX NSCLC): > 100 µM | TGI (SW-620 colon): > 100 µM | TGI (SNB-78 CNS): > 95.3 µM | TGI (UO-31 renal): > 100 µM | TGI (SK-OV-3 ovarian): > 100 µM | TGI (786-0 renal): > 100 µM | TGI (U251 CNS): 28.5 µM | TGI (DMS 273 small cell lung): > 100 µM | TGI (HL-60(TB) leukemia): 61.7 µM | TGI (HT29 colon): 67.6 µM | TGI (UACC-62 melanoma): 19.9 µM | TGI (SK-MEL-2 melanoma): > 100 µM | TGI (SNB-75 CNS): > 91.7 µM | TGI (ACHN renal): > 100 µM | TGI (OVCAR-4 ovarian): > 100 µM | TGI (XF 498 CNS): > 100 µM | TGI (DLD-1 colon): > 100 µM | TGI (DMS 114 small cell lung): 34.2 µM | TGI (UACC-257 melanoma): > 100 µM | TGI (HOP-62 NSCLC): > 100 µM | TGI (SR leukemia): 56 µM | TGI (HOP-92 NSCLC): > 100 µM | TGI (M19-MEL melanoma): > 100 µM | TGI (COLO 205 colon): 51.5 µM | TGI (SF-295 CNS): > 35.7 µM | TGI (HCT-15 colon): > 81.6 µM | TGI (M14 melanoma): 5.59 µM | TGI (MOLT-4 leukemia): 97.2 µM | TGI (OVCAR-5 ovarian): 72.1 µM | TGI (RPMI-8226 leukemia): > 89.3 µM | TGI (SNB-19 CNS): > 100 µM | TGI (SF-539 CNS): 19.1 µM | TGI (TK-10 renal): > 100 µM | TGI (LXFL 529 NSCLC): > 100 µM | TGI (NCI-H23 lung): > 92.4 µM | TGI (K-562 leukemia): > 100 µM | TGI (A498 renal): > 81.5 µM | TGI (MALME-3M melanoma): > 100 µM | TGI (HCT-116 colon): > 39.2 µM | TGI (NCI-H226 lung): 74.7 µM | TGI (RXF 393 renal): 8.7 µM | TGI (CCRF-CEM leukemia): > 100 µM | TGI (KM20L2 colon): 49.8 µM | TGI (KM12 colon): 16.6 µM | TGI (HOP-18 NSCLC): > 100 µM | TGI (NCI-H460 lung): 60.2 µM | TGI (A549 NSCLC): > 100 µM | TGI (SK-MEL-28 melanoma): > 100 µM | TGI (SN12C renal): > 100 µM | TGI (LOX IMVI melanoma): > 100 µM | TGI (SF-268 CNS): > 80.4 µM | TGI (HCC-2998 colon): > 37.1 µM | TGI (NCI-H522 lung): 12.7 µM | TGI (IGROV1 ovarian): > 100 µM | TGI (OVCAR-3 ovarian): > 76.3 µM | TGI (CAKI-1 renal): > 100 µM | TGI (OVCAR-8 ovarian): 27.2 µM
